Measurements as given in patent US20260355330A1, “CELL PENETRATING PEPTIDES AND USES THEREOF” (VECTIOPEP OÜ, priority 2022, published 2026).
“Also recorded” adds a separate entry of the source. Positions of bridges follow the written chain, without caps; N, C: chain ends. Non-standard residues stand in square brackets, D forms with d. Residues, ends and D or L forms follow the SMILES beside them. Chains are numbered I, II in the order given. *: point of attachment. Stearoyl = CCCCCCCCCCCCCCCCCC(=O)*; Palmitoyl = CCCCCCCCCCCCCCCC(=O)*; Dab = NCC[C@H](N)C(=O)O

Tests used:
[1] = test system: BALB/c mice; assay: Live animal imaging 1-48 hours post administration of NF424/mRNA or NF424/pDNA complexes; assay type: in vivo
Procedure: FIG. 4: Live animal imaging 1-48 hours post administration of NF424/mRNA or NF424/pDNA complexes. Reporter gene product levels were evaluated with full body imager at 1 h, 6 h, 12 h, 24 h, and 48 h post-injection.
(§1) The transfection complexes (CPP/mRNA) were formed using 10 μg of mRNA mixed with each peptide at indicated charge ratios (CRs) in MQ water in a final volume of 100 μl. CRs were calculated theoretically and account for both the positive charges of the peptide and negative charges of the nucleic acid. The transfection complexes (CPP/mRNA and CPP/pDNA) were formed using 50 μg of mRNA mixed with each peptide at indicated charge ratios (CRs) in MQ water in a final volume of 168 μl. The complexes were incubated for 30 minutes at room temperature and then mixed with equal volume of 10% glucose (resulting in a final solution of 5% glucose in a total volume of 200 μl for 10 μg dose groups and 336 μl for 50 μg dose groups) and immediately injected intravenously via the tail vein.
100 μl of luciferin (PerkinElmer), at a concentration of 15 mg/ml, was intraperitoneally injected into the mice. After 10 min, the mice were imaged using the In Vivo Imaging System (IVIS Lumina II, PerkinElmer).
Live animal imaging was used to track the timepoints of mRNA and pDNA transfection with NFs (FIG. 4). The CPP used was NF424, complexes were formed in parallel with mRNA or pDNA and injected through the tail vein of BALB/c mice. The reporter gene expression levels were evaluated with full body imager at 1 h, 6 h, 12 h, 24 h and 48 h post-injection.

[2] = test system: spleen of BALB/c mice; assay: In vivo delivery of mRNA with CPPs - reporter levels in the spleen; conditions: for Efficacy of mRNA delivery into the spleen in vivo: FIG. 5 / Table 5; for Reporter levels in the spleen (RLU): mRNA, tail vein injection, spleens harvested 16 hours after single injection, whole tissue homogenate
Procedure: FIG. 5: Delivery of mRNA with CPPs in vivo—reporter levels in the spleen. Spleens were harvested post mortem 16 hours post-injection. The reporter levels (RLU) were evaluated from the whole tissue homogenate.
as §1
(§2) The reporter gene (luciferase) expression levels were evaluated from the tissue homogenate post mortem 16-24 h after single injection.
CPPs and mRNA complexes were injected through the tail vein of BALB/c mice, spleens were harvested 16 hours after the single injection and reporter signal was measured from the whole tissue homogenate (FIG. 5 and Table 5).

[3] = test system: CHO-K1 cells; assay: Delivery of reporter mRNA with CPPs in cell culture (luciferase luminescence 24 h post-transfection); assay type: cell-based; conditions: for Average RLU/mg (reporter levels post-transfection of mRNA): firefly luciferase mRNA, 0.1 μg per well, charge ratio 3:1, serum containing media, 24 h, RLU normalised to total protein in lysate; for Efficiency of mRNA transfection/delivery: FIG. 1 / Table 2, cell culture
Procedure: FIG. 1: Delivery of reporter mRNA with CPPs in cell culture—evaluation of reporter levels post-transfection (relative light units normalised to total protein in the cell lysate (RLU/mg)). Naked mRNA treated cells were used as controls and Lipofectamine3000 (LF3000) was used to compare the transfection efficacy with a liposome-based transfection reagent.
Adherent CHO-K1 cells were grown in Dulbecco's Modified Eagle's Medium (DMEM), which were supplemented with 0.1 mM non-essential amino acids, 1.0 mM sodium pyruvate, 100 U/ml penicillin, and […]. For complete media, 10% (final) fetal bovine serum (FBS) was added. Cells were maintained in a humidified incubator at 37 °C, 5% CO2. Cell viability and confluence was assessed daily and the cell density was reduced regularly. For cell counting, we used the CytoSMART cell counter accompanied by 0.4% trypan blue staining prior measurement. The multi-well plates with cell cultures used for experiments were incubated in a humidified incubator at 37 °C, 5% CO2.
For in vitro experiments 0.1 μg of nucleic acid (plasmid DNA (pDNA) or mRNA) was used per 96-well plate well. For CPP/NA complex formation, the diluted NA was mixed with CPP in water. Complexes were formed based on the theoretical charge ratio (CR) of positive charges from the peptide in excess to the negative charges from nucleic acid backbone, at charge ratio 3:1 with peptide in excess. Commercial reagent Lipofectamine3000 (LF3000) was used according to the manufacturer's recommendations for the transfection of adherent cells.
For reporter luminescence (expressed from firefly luciferase encoding mRNA or plasmid pDNA) assessment in adherent cell culture, 10,000 cells per 96-well plate well were seeded in 100 μl of media one day prior to transfection. Shortly before transfection, cell media was replaced with 100 μl of serum containing (10% foetal bovine serum) DMEM media. CPPs and mRNA or pDNA were mixed at a charge ratio 3:1 in ultrapure water and incubated at room temperature before addition to cells in serum containing media. Cells were transfected with 0.1 μg of mLuc per well.
24 hours post-transfection, the media was aspirated, cells were washed with 1×PBS, and 30 μl of lysis buffer (0.1% Triton X100 in 1×PBS) was added. Cells were incubated with lysis buffer for 20 min. to lyse the cells. From the lysate, 20 μl was transferred to a black frame white well 96-well plate for luminescence measurement after addition of substrate luciferin (PerkinElmer) in buffer. The luminescence signal was detected with GloMax® 96 microplate luminometer equipped with GloMax® 1.9.2 software (Promega). RLU values were converted to RLU/mg by normalization to total protein in cell lysate, reflecting total number of cells. For protein detection, a Pierce™ BCA Protein Assay Kit was used.
The present inventors have previously reported CPPs developed from the NickFect (NF) and PepFect (PF) families for plasmid (pDNA), siRNA and miRNA delivery (see, e.g. WO 2020/144317, WO 2010/039088 and WO 2012/113846). With the emergence of mRNA-based therapeutics, it was decided to investigate peptides for their ability to deliver mRNA. It was assumed that CPPs that are efficient for siRNA and miRNA delivery, e.g. histidine containing CPPs (Porosk et. al. (2019)), may be good candidates for the delivery of mRNA. Therefore, CPPs from each main family (NF55-, PF14- and NF70-derived CPPs) were tested for mRNA delivery/transfection. Naked mRNA treated and untreated cells were used as control groups. LF3000 was used to compare the transfection efficacy of liposome-based transfection reagents with the CPPs (FIG. 1).

[4] = test system: liver, spleen, lung, kidney, heart and thymus of Balb/c mice; assay: Biodistribution of reporter levels post-transfection of mRNA or pDNA with CPPs in vivo (tissue homogenate)
Procedure: FIG. 3: Biodistribution of reporter levels post-transfection of mRNA or pDNA with NFs or PFs CPPs in vivo. Reporter gene product levels were evaluated from the whole tissue homogenates collected post mortem. Results are shown as the fold change to mRNA or pDNA treated mice.
as §1, §2
In order to determine to which organs in vivo mRNAs may be delivered to with NickFect or PepFect CPPs, mRNA complexes with NF55, NF71 and PF14 were formed and injected through the tail vein of Balb/c mice (FIG. 3A). The organs were harvested 24 hours after the single injection and reporter signal was measured from whole tissue homogenates. The biodistribution of reporter levels was measured in liver, spleen, lung, kidney, heart and thymus.
In order to compare the biodistribution profiles between harvested organs when using either mRNA or pDNA as cargo, NF424 was used to transfect these 2 types of nucleic acids in vivo (FIG. 3B and Table 4).

[5] = in words; previously reported; cited from earlier work
[6] = in words; previously reported; cited from earlier work; remark: listed apart in the source
[7] = NF424 delivery of mRNA, fold change to mRNA treated mice
[8] = NF424 delivery of pDNA, fold change to pDNA treated mice

CCCCCCCCCCCCCCCCCC(=O)N[C@@H](C)C(=O)NCC(=O)N[C@@H](Cc1ccc(O)cc1)C(=O)N[C@@H](CC(C)C)C(=O)N[C@@H](CC(C)C)C(=O)NCC(=O)NCC[C@H](N)C(=O)N[C@@H](CC(C)C)C(=O)N[C@@H](CCCCN)C(=O)N[C@@H](C)C(=O)N[C@@H](CC(C)C)C(=O)N[C@@H](C)C(=O)N[C@@H](C)C(=O)N[C@@H](CC(C)C)C(=O)N[C@@H](C)C(=O)N[C@@H](CCCCN)C(=O)N[C@@H](C)C(=O)N[C@H](C(=O)N[C@@H](CC(C)C)C(N)=O)[C@@H](C)CC [NF424] (I: H-[Dab]LKALAALAKAIL-NH2 / II: Stearoyl-AGYLLG; amide I:1-II:C)
Time at which reporter signal was detected in the spleens ([1]; NF424/mRNA complexes, 10 μg mRNA, tail vein): ≤ 1 h
Time at which reporter signal was visible in the lungs ([1]; NF424/pDNA complexes, 50 μg pDNA, tail vein): 6 h
Detected signal, mRNA vs pDNA ([1]; in words, 10 μg mRNA vs 50 μg pDNA): the detected signal was much higher from mRNA
Main organ of mRNA delivery (live imaging) ([1]; in words, mRNA cargo): delivers mRNA mostly to the spleen
Main organ of pDNA delivery (live imaging) ([1]; in words, pDNA cargo): pDNA to the lungs
Efficacy of mRNA delivery into the spleen in vivo ([2]; in words): highest reporter levels after mRNA delivery into the spleen in vivo
Delivery of mRNA in vivo compared to NF54 and/or NF55 ([2]; in words, comparator NF54 and/or NF55): significantly improved delivery of mRNA in vivo over both NF54 and NF55
Reporter levels in the spleen (RLU) [2]: 427 566 RLU
Average RLU/mg (reporter levels post-transfection of mRNA) [3]: 2 590 000 000 RLU/mg
Efficiency of mRNA transfection/delivery ([3]; in words): the most efficient
Delivery of mRNA compared to NF54 ([3]; in words, comparator NF54): good improvement in delivery of cargo such as mRNA over NF54
Delivery of mRNA compared to NF55 ([3]; in words, comparator NF55): significantly improved delivery of mRNA over NF55
Fold/mRNA, Liver [4, 7]: 9 Fold
Fold/mRNA, Lung [4, 7]: 98 Fold
Fold/mRNA, Spleen [4, 7]: 8 330 Fold
Fold/pDNA, Liver [4, 8]: 2 Fold
Fold/pDNA, Lung [4, 8]: 11 Fold
Fold/pDNA, Spleen [4, 8]: 5 Fold
Organ distribution of mRNA delivery ([4]; in words, mRNA cargo): the highest expression levels were found in the spleen of treated mice
Organ distribution of pDNA delivery ([4]; in words, pDNA cargo): the main expression was found in lungs and liver

NF70: SEQ ID NO: 13; HHHHYHHGO*ILLKALKALAKAIL; control/comparator construct [reference compound]
Reporter levels in the spleen (RLU) [2]: 8 000 RLU
miRNA delivery efficiency [5]: very efficient for siRNA and miRNA delivery
siRNA delivery efficiency [6]: very efficient for siRNA and miRNA delivery; also recorded: the most efficient, even more efficient than NF55
Average RLU/mg (reporter levels post-transfection of mRNA) [3]: 919 720 RLU/mg
Efficiency of mRNA transfection/delivery ([3]; in words): not efficient for mRNA delivery

CCCCCCCCCCCCCCCCCC(=O)N[C@@H](C)C(=O)NCC(=O)N[C@@H](Cc1ccc(O)cc1)C(=O)N[C@@H](CC(C)C)C(=O)N[C@@H](CC(C)C)C(=O)NCC(=O)N[C@@H](CCN)C(=O)N[C@H](C(=O)N[C@@H](CC(N)=O)C(=O)N[C@@H](CC(C)C)C(=O)N[C@@H](CCCCN)C(=O)N[C@@H](C)C(=O)N[C@@H](CC(C)C)C(=O)N[C@@H](C)C(=O)N[C@@H](C)C(=O)N[C@@H](CC(C)C)C(=O)N[C@@H](C)C(=O)N[C@@H](CCCCN)C(=O)N[C@@H](C)C(=O)N[C@H](C(=O)N[C@@H](CC(C)C)C(N)=O)[C@@H](C)CC)[C@@H](C)CC [NF559]
Reporter levels in the spleen (RLU) [2]: 56 280 RLU
Average RLU/mg (reporter levels post-transfection of mRNA) [3]: 563 000 000 RLU/mg

CCCCCCCCCCCCCCCC(=O)N[C@@H](C)C(=O)NCC(=O)N[C@@H](Cc1ccc(O)cc1)C(=O)N[C@@H](CC(C)C)C(=O)N[C@@H](CC(C)C)C(=O)NCC(=O)NCC[C@H](N)C(=O)N[C@@H](CC(C)C)C(=O)N[C@@H](CCCCN)C(=O)N[C@@H](C)C(=O)N[C@@H](CC(C)C)C(=O)N[C@@H](C)C(=O)N[C@@H](C)C(=O)N[C@@H](CC(C)C)C(=O)N[C@@H](C)C(=O)N[C@@H](CCCCN)C(=O)N[C@@H](C)C(=O)N[C@H](C(=O)N[C@@H](CC(C)C)C(N)=O)[C@@H](C)CC [NF425] (I: H-[Dab]LKALAALAKAIL-NH2 / II: Palmitoyl-AGYLLG; amide I:1-II:C)
Efficacy of mRNA delivery into the spleen in vivo ([2]; in words): delivered mRNA into the spleen in vivo with high efficacy
Reporter levels in the spleen (RLU) [2]: 209 700 RLU
Average RLU/mg (reporter levels post-transfection of mRNA) [3]: 106 000 000 RLU/mg
